The experiment concerns the target T1, human cGAS (residues 161-522) (Homo sapiens, UniProt Q8N884).
T1 construct: Recombinantly expressed purified human cGAS (residues 161-522) was used at 25 nM; made in house
In words: Malachite Green assay to measure cGAS activity (coupled enzymatic assay, phosphate detection). The experiment is classed as biochemical. The conditions noted are these: recombinant human cGAS 25 nM; 80 μM ATP, 80 μM GTP, 100 nM ISD; 4 hour at RT. Here is the method: Malachite Green Assay to Measure cGAS Activity
Compounds were tested for cGAS inhibition in a coupled enzymatic assay based on Phosphate detection by Malachite Green. Final assay conditions were 20 mM TRIS pH 7.5 (Applichem), 5 mM MgCl2 (Sigma) and 0.01% BSA (Sigma) supplemented with 80 μM ATP (Sigma), 80 μM GTP (Sigma) and 100 nM Interferon Stimulating DNA (ISD) (Microsynth). Recombinantly expressed purified human cGAS (residues 161-522) was used at 25 nM.
All compounds were prepared as 10 mM stock solutions in DMSO and a 16 pt dilution series in DMSO with a dilution factor of 2.5 was prepared. 1 μL of DMSO dilution series was transferred to 32.3 μL reaction buffer, mixed by pipetting up/down, spun for 1 minute at 3000 rpm and was visually inspected for precipitation. 5 μL of 3-fold enzyme stock solution were transferred to an empty 384-well Black/Clear Flat Bottom Polystyrene NBS (Corning) rows 3-24. Rows 1-2 were filled with assay buffer. Plates were spun 10 seconds at 1000 rpm (164×g). 5 μL of compound intermediate dilution was added and mixed by pipetting up/down to rows 3-24. Rows 1-2 were filled with 3.1% DMSO assay buffer. Plates were spun 10 seconds at 1000 rpm (164×g). 5 μL 3-fold Nucleotide/DNA mix was added to all wells to start the reaction. Plates were spun 10 seconds at 1000 rpm (164×g) and incubated for 4 hour at room temperature (RT) in the dark. 5 μL 4 U/mL PPase (Sigma) were added to all wells. Plates spun 10 seconds at 1000 rpm (164×g). 10 μL BioMol green Solution (Enzo Life Sciences) was added to all wells. Plates spun 10 seconds at 1000 rpm (164×g) and incubated 30 minutes at RT in the dark. Absorbance data was collected 620 nm on an EnVision Multilable Reader (Perkin Elmer) and the following measurement settings were used: excitation filter photometric was 620 nm; excitation from the top; measurement height was 1 mm; number of flashes was 30; number of flashes integrated was 1.
All plates are checked for abnormalities and outliers in the Blank Control (no protein, row 1) and the Neutral Control (no compound, row 2) are excluded using the 3*SD rule. Data was normalized to 0 and 100% by Blank and Neutral Control and each curve was fitted and judged using the 4 parameter logistic equation to determine the IC50 for cGAS inhibition.
Table 1 provides IC50 values (04) for cGAS inhibition obtained for particular examples of the present invention as measured by the above-described assay.

T1 sequence (Q8N884 161-522): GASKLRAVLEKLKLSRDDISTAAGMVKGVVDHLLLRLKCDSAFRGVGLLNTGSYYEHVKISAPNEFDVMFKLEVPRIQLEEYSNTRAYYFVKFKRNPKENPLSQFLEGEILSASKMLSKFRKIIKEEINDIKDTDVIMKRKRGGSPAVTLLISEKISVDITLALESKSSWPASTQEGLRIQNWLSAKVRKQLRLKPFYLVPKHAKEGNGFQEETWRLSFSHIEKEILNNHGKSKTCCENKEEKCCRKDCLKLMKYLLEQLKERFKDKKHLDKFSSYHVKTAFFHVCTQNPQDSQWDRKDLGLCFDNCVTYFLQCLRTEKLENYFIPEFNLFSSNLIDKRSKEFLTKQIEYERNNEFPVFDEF

Take `Cc1ccc(-c2ccc3c(c2)C(=O)NS(=O)(=O)N3CCc2ccccc2)c(Cl)c1` [Example 4, 6-(2-Chloro-4-methylphenyl)-1-phenethyl-1H-benzo[c][1,2,6]thiadiazin-4(3H)-one 2,2-dioxide]: the IC50 (usually the concentration that inhibits the measured activity by half) came to 17.2 µM. With `Cc1ccc(-c2ccc3c(c2)C(=O)NS(=O)(=O)N3Cc2ccncc2)c(Cl)c1` [Example 3, 6-(2-Chloro-4-methylphenyl)-1-(pyridin-4-ylmethyl)-1H-benzo[c][1,2,6]thiadiazin-4(3H)-one 2,2-dioxide], the 50% inhibitory concentration (IC50) stood at 14.2 µM. With `Cc1ccc(-c2ccc3c(c2)C(=O)NS(=O)(=O)N3)c(Cl)c1` [Example 1, 6-(2-Chloro-4-methylphenyl)-1H-benzo[c][1,2,6]thiadiazin-4(3H)-one 2,2-dioxide], the half-inhibitory concentration (IC50) was found to be 2.94 µM. For `Cc1ccc(-c2ccc3c(c2)C(=O)NS(=O)(=O)N3CCN2CCOCC2)c(Cl)c1` [Example 2, 6-(2-Chloro-4-methylphenyl)-1-(2-morpholinoethyl)-1H-benzo[c][1,2,6]thiadiazin-4(3H)-one 2,2-dioxide], the IC50 is 9.6 µM. With `Cc1ccc(-c2ccc3c(c2)C(=O)NS(=O)(=O)N3Cc2ccccc2)c(Cl)c1` [Example 6, 1-Benzyl-6-(2-chloro-4-methylphenyl)-1H-benzo[c][1,2,6]thiadiazin-4(3H)-one 2,2-dioxide], the IC50 turned out to be 20.1 µM.

Take `Cc1ccc(-c2ccc3c(c2)C(=O)N(CCN2CCOCC2)S(=O)(=O)N3)c(Cl)c1` [Example 5, 6-(2-Chloro-4-methylphenyl)-3-(2-morpholinoethyl)-1H-benzo[c][1,2,6]thiadiazin-4(3H)-one 2,2-dioxide]: the IC50 worked out at 17.6 µM.
